Key:
[1] = tested on: Renin mRNA in As4.1 cells; experiment: Renin mRNA in As4.1 cells transfected with pcDNA-hVDR (real-time RT-PCR); type: cell-based
Description: As4.1 cells (ATCC, Manassas, Va.) were cultured in Dulbecco's Modified Eagle Medium DMEM (commercially available from Invitrogen, Carlsbad, Calif.) with 10% fetal bovine serum at 37° C. in a humidified 5% CO2-95% air atmosphere. C3;ells were transfected with the pcDNA-hVDR plasmid (provided by Yan Chun Li, University of Chicago) by LIPOFECTAMINE™ 2000 (Invitrogen, Carlsbad, Calif.). siRNA was transfected with the pcDNA-hVDR plasmid by LIPOFECTAMINE™ 2000 according to the manufacturer's protocol. Twenty-four hours after transfection, cells were treated with test agents.
Real-time reverse transcription-PCR was performed with a MyiQ Real-time PCR Detection System (commercially available from BioRad, Hercules, Calif.). […] TaqMan™ probes that were 5′ labeled with the reporter 6-carboxyfluorescein (FAM) and 3′ labeled with the quencher tetramethylrhodamine (TAMRA) were used and the primer and probe sets were obtained from Applied Biosystems (Foster City, Calif.). Temperature conditions consisted of a step of 5 minutes at 95° C., followed by 45 cycles of 60° C. for 1 minute and 95° C. for 15 seconds. Data was collected during each extension phase of the PCR reaction and analyzed with the accompanying software package (BioRad, Hercules, Calif.). Threshold cycles were determined for each gene.

[2] = tested on: PAI-1 mRNA in human coronary artery smooth muscle cells (CASMC); experiment: PAI-1 mRNA in CASMC; type: cell-based; settings: Homo sapiens
Description: (§1) Primary culture of human coronary artery smooth muscle cells (CASMC) (commercially available from Cambrex, Walkersville, Md.) were grown in smooth muscle growth medium SmGM-2 (commercially available from Lonza Bioscience) containing 5.5 mM glucose, 5% FBS, 50 μg/ml gentamicin, 50 ng/ml amphotericin-B, 5 μg/ml insulin, 2 ng/ml human recombinant fibroblast growth factor (hFGF), and 0.5 ng/ml human recombinant epidermal growth factor (hEGF) at 37° C. in a humidified 5% CO2-95% air atmosphere. Cells were grown to >80% confluence and used within five passages.
(§2) Real-time reverse transcription-PCR was performed with a MyiQ Real-Time PCR Detection System (BioRad, Hercules, Calif.). Each sample has a final volume of 25 μl containing 100 ng of cDNA, […] each of the forward and reverse PCR primers and […] of the TaqMan™ probe for the gene of interest (Applied Biosystems, Foster City, Calif.). Temperature conditions consisted of a step of 5 minutes at 95° C., followed by 40 cycles of 60° C. for 1 minute and 95° C. for 15 seconds. Data was collected during each extension phase of the PCR reaction and analyzed with the software package (BioRad, Hercules, Calif.). Threshold cycles were determined for each gene. […]

[3] = target: T1, recombinant full-length human Vitamin D nuclear receptor (Homo sapiens, UniProt P11473); experiment: biochemical
T1 sequence (P11473 1-427): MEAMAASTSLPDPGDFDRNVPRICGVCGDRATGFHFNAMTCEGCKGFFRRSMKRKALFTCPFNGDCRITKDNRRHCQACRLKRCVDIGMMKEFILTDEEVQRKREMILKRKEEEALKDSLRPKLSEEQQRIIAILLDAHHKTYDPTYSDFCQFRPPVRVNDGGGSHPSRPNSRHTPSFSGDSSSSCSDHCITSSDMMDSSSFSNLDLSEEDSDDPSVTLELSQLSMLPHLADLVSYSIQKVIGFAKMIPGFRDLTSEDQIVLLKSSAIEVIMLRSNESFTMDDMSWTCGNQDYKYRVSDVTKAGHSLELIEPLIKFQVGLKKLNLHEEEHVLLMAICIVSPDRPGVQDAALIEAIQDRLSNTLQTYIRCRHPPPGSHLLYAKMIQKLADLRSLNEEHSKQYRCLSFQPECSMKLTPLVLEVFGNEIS
Description: In vitro binding of selected compounds according to the invention to VDR was assessed using the following procedure. […] Each test compound was then serially diluted in binding buffer to concentrations appropriate for the assay, as one skilled in the art can determine.
Final assay volume was 100 uL. The filled plate was incubated overnight at 4° C. with gentle shaking. After 18 hours of incubation, 20 uL of wheat germ agglutinin-coated yttrium silicate scintillation proximity assay (SPA) beads (commercially available from Amersham Biosciences, Piscataway, N.J.; Part # RPNQ0270) resuspended in binding buffer was added to each well (200 ug/well) and the plate was incubated at room temperature for 2 hours with gentle shaking.

[4] = tested on: Thrombospondin mRNA in human coronary artery smooth muscle cells (CASMC); experiment: Thrombospondin mRNA in CASMC; type: cell-based; settings: Homo sapiens
Description: as §1, §2

[5] = tested on: VDR (VDRE-luciferase-reporter construct); experiment: VDRE Reporter Gene Assay in HEK cells with stable expression of VDR; type: cell-based; settings: Homo sapiens, HEK293, 24 hours
Description: Compound activity was also assessed by looking at a Vitamin D Response Element (VDRE) reporter gene assay, Human Embryonic Kidney cells (HEK cells) with a stable expression of VDR were cultured in 96-well plates at ˜4×10^5 cells/mL (100 μL/well) in DMEM medium containing 10% fetal calf serum. Cells were transfected with 0.2 μg per well of a VDRE-luciferase-reporter construct (from Y. Li, University of Chicago) and then treated with test agents at indicated concentrations for 24 hours. The luciferase activity was then measured following the manufacturer's instructions (Promega, Madison, Wis.).

[6] = tested on: Thrombomodulin mRNA in human coronary artery smooth muscle cells (CASMC); experiment: Thrombomodulin mRNA in CASMC; type: cell-based; settings: for EC50: Homo sapiens
Description: as §1, §2

[7] = tested on: Human promyelocytic leukemia (HL60) cells; experiment: HL-60 Differentiation; type: cell-based; settings: HL-60, 96 h, four days incubation, NBT, absorbance 570 nm
Description: Human promyelocytic leukemia (HL60) cells were obtained from the American Type Culture Collection (ATCC Cat. # CCL-240, Manassas, Va.). Cells were maintained in RPMI 1640 medium (commercially available from Invitrogen, Carlsbad, Calif.) containing 10% fetal bovine serum (commercially available from Invitrogen, Carlsbad, Calif.) at 37° C. with 5% CO2. Cells were passaged weekly and were not allowed to become >90% confluent. For the assay, cells were plated at 5×10^5 cells per well in 200 uL media. Test compounds were diluted in media in concentrations between 10^−6-10^−10 M and then added to the appropriate wells. Cells were then incubated for four days at 37° C. in 5% CO2 atmosphere. After incubation, media was aspirated from each well and 75 uL of NBT solution (nitroblue tetrazolinium: 200 ng/mL PMA (phorbol 12-myrystate 13-acetate) and 2 mg/ml NBT (nitroblue tetrazolium) in distilled H2O) was added to each well followed by further incubation for 2 hours at 37° C. Following incubation, 150 uL lysis buffer (225 mL dimethylformamide, 67.5 g SDS). PMA stock solution (2 mg/ml in ethanol) was added to each well and the plate was allowed to sit at room temperature for 4 hours. HL-60 cell differentiation was assayed, Effect of each compound on cell growth was examined as a function of time; absorbance in each well was measured at 570 nm.

Male, C57BL6, mice = experiment: Normal Mouse Calcemia Model; type: in vivo; settings: s.c. once daily for 3 days, dose giving 1 mg/dL change in total Ca
Description: Male, C57BL6, mice were obtained from Jackson Laboratories. The mice were habituated for four days while maintained on a normal diet (D10001, Research Diets Inc.). Treatment was initiated with vehicle (20% ethanol/30% propylene glycol/50% water, 0.05 mL, s.c.) or test agent administered over a three log dose range. The animals were dosed once daily for 3 days. Twenty-four hours after the last dose, animals were anesthetized with ketamine/xylazine (100/18 mg/kg) and bled by cardiac puncture for measurement of PTH and other end points.
Measurement of PTH and minerals: Calcium (Ca), serum phosphorus (Pi), creatinine and BUN were measured from serum using an Abbott Aeroset® (Abbott Laboratories, Abbott Park, Ill.). Blood ionized calcium (iCa) was determined using the i-STAT® system (Abbott Laboratories, East Windsor, N.J.). Serum PTH was measured using a mouse parathyroid hormone (PTH) EIA kit obtained from ALPCO/Immutopics, Inc. (Windham, N.H.). Selected data is shown is Table 6. The graphs in FIG. 4 give an indication of dose response. Notable is that Example 1 produced an approximately 30% reduction in PTH over at least a three log dose range without a concomitant elevation of serum calcium of greater than 1 mg/dL.
Data analysis: Mean±standard error of the mean was calculated for each group. One way ANOVA followed by a Dunnett's test was used to assess differences between vehicle and drug-treated groups. *p<0.05=significance.

C=C1[C@H](O)CC(=C/C=C2\CCC[C@]3(C)[C@@H]([C@H](C)COC(=O)NC(C)(C)C)CC[C@@H]23)C[C@H]1O [Example 5, (2S)-2-[(1R,3R,7E,17β)-1,3-dihydroxy-2-methylene-9,10-secoestra-5,7-dien-17-yl]propyl tert-butylcarbamate]
IC50 [1]: 2.4 nM
IC50 [2]: 0.002 nM
IC50 [3]: 0.1 nM
IC50 [4]: 0.001 nM
EC50 [5]: 0.3 nM
EC50 [6]: 5.6 nM

C=C1[C@H](O)CC(=C/C=C2\CCC[C@]3(C)[C@@H]([C@H](C)CO)CC[C@@H]23)C[C@H]1O [Example 2, (1R,3R,7E,17β)-17-[(1S)-2-hydroxy-1-methylethyl]-2-methylene-9,10-secoestra-5,7-diene-1,3-diol]
IC50 [1]: 0.7 nM
IC50 [2]: 0.03 nM
EC50 [7]: 162 nM
IC50 [3]: 890 nM
IC50 [4]: 3.7 nM
EC50 [5]: 52.7 nM
Thrombomodulin mRNA in CASMC EC50 [6]: inactive

C[C@H](/C=C/[C@H](C)C(C)(C)O)[C@H]1CC[C@H]2/C(=C/C=C3C[C@@H](O)C[C@H](O)C3)CCC[C@]12C [Paricalcitol, paricalcitol, reference compound]
IC50 [1]: 0.8 nM
IC50 [2]: 0.5 nM
EC50 [7]: 16 nM
IC50 [3]: 14.6 nM
IC50 [4]: 0.2 nM
EC50 [5]: 5.9 nM
EC50 [6]: 1.5 nM
1 mg/dL Δ total Ca (Male, C57BL6, mice): 0.286 µg/kg

C=C1[C@H](O)CC(=C/C=C2\CCC[C@]3(C)[C@@H]([C@H](C)COC(=O)C(C)(C)CC)CC[C@@H]23)C[C@H]1O [Example 4, (2S)-2-[(1R,3R,7E,17β)-1,3-dihydroxy-2-methylene-9,10-secoestra-5,7-dien-17-yl]propyl 2,2-dimethylbutanoate]
IC50 [1]: 3.4 nM
IC50 [2]: 0.02 nM
EC50 [7]: 0.7 nM
IC50 [3]: 62.4 nM
IC50 [4]: 0.001 nM
EC50 [5]: 1.3 nM
EC50 [6]: 84.7 nM

C=C1/C(=C\C=C2/CCC[C@]3(C)[C@@H]([C@H](C)CCCC(C)(C)O)CC[C@@H]23)C[C@@H](O)C[C@@H]1O [Calcitriol, 1,25-dihydroxyvitamin D3, reference compound]
IC50 [1]: 1.6 nM
IC50 [2]: 0.8 nM
EC50 [7]: 7 nM
IC50 [4]: 19.1 nM
EC50 [6]: 1.6 nM
1 mg/dL Δ total Ca (Male, C57BL6, mice): 0.026 µg/kg

C=C1[C@H](O)CC(=C/C=C2\CCC[C@]3(C)[C@@H]([C@@H](C)COC(=O)C(C)(C)C)CC[C@@H]23)C[C@H]1O [Example 3, (2R)-2-[(1R,3R,7E,17β)-1,3-dihydroxy-2-methylene-9,10-secoestra-5,7-dien-17-yl]propyl pivalate]
IC50 [1]: 0.4 nM
IC50 [2]: 0.003 nM
EC50 [7]: 3.9 nM
IC50 [3]: 1330 nM
IC50 [4]: 0.002 nM
EC50 [5]: 0.9 nM
EC50 [6]: 39.9 nM
